The source of these data is US9315546B2, “Growth hormone secretatogue receptor antagonists and uses thereof” (The Administrators of the Tulane Educational Fund, priority 2010, dated 2016).

Where a SMILES comes first, the peptide text is derived from it. Where no end group is shown, it is not given here. [ ]: non-standard residue; d: D form. d2Nal = N[C@H](Cc1ccc2ccccc2c1)C(=O)O

Test [1] concerns the target T1, Ghrelin/GHRP/GHS Receptor (Rattus norvegicus, UniProt O08725). In words: GH release from isolated pituitary glands, pituitary incubation method. The format is cell-based. The protocol: Hormonal activities were obtained from in vitro studies using pituitaries of 20 day old CD-1 strain Sprague Dawley female rats. Two pituitaries were incubated for a total of 4-6 hours. Medium was removed each hour for RIA of GH level and fresh medium was added again. After two one hour preincubation periods (P1-P2), the vehicle/peptides were added to two one hour incubations (I3-I4). Peptide activity was calculated as the change in the hormonal level (delta) between I3+I4 and P2. For antagonist activity, the incubation was continued for 2 additional hours (I5-I6) where both the peptide and a stimulator of GH secretion was added and the antagonist activity was calculated as the change in the hormonal level (delta) between I5+I6 and P2. The peptides were assayed in triplicate and the hormone was assayed in duplicate. Each value recorded represents the mean of 6. The GH RIA reagents were distributed by the NIH. Control data was collected from isolated pituitary glands treated with only the corresponding vehicle in the absence of peptide or stimulator. Control stimulated data was collected from isolated pituitary glands treated with stimulator alone in the absence of any peptide.

Test [2] concerns the target T2, human ghrelin receptor type 1a (GHS-R1a) (Homo sapiens, UniProt Q92847).
T2 construct: expressed in transfected cells; host or cells: HEK-293 cells (membranes)
In words: Receptor binding, displacement of radiolabelled ghrelin, HEK-293 cell membranes. Conditions: for % INH, Ghrelin/GHS Antagonist Receptor Activity: concentration not given.

The target in test [3] is T3, hypothalamic ghrelin receptor (Rattus norvegicus, UniProt O08725). In words: Food intake and body weight change after icv ghrelin analogs in adult male rats. To be noted: ghrelin analog 10 μg icv, monitored hourly over 5 h. The format is in vivo. The arrangement: from tissue; host or cells: whole animal (adult male rats). As for the experimental part:
(§1) In vivo effects were measured on spontaneous and ghrelin-stimulated GH secrtion over a 6-h sampling period, and food intake monitored hourly over a 5-h period and body weight change over 24 h.

The target of test [4] is T3, hypothalamic ghrelin receptor. The test can be described thus: Spontaneous and ghrelin-stimulated GH secretion after icv ghrelin analogs in adult male rats. The test is classed as in vivo. The arrangement: from tissue; host or cells: whole animal (adult male rats). To be noted: ghrelin analog 10 μg icv, 6-h sampling. The protocol: as §1
Test [5] deals with T4, GHS-R 1a (Rattus norvegicus, UniProt O08725).
T4 construct: free-moving rats were i.c.v. injected with either normal saline or GHS-A (5 μg); from tissue; host or cells: whole animal (adult male Sprague Dawley rats)
In words: Spontaneous and ghrelin-induced food intake in rats. The test is classed as in vivo. The protocol:
The effects of the GHS-A on both spontaneous and ghrelin-induced food intake and body weight gain were investigated. For the spontaneous experiments, the rats were fasted overnight (1600-1100 h next morning) and were i.c.v.-injected with either normal saline or GHS-A (5 μg) at 1100 h. Food intake was monitored on an hourly basis for 5 h after the initial injection (until 1600 h) and subsequently overnight (1600-0900 h next morning). A measured amount of rat chow pellets was placed in the cage every hour. Spillage was collected by placement of a diaper under the rat cages, and total food consumed for each period was calculated by subtracting uneaten food plus spillage from total given. Body weights were recorded daily at 0900 h. The latency to the onset of the first meal after the injection and the duration of that meal were also monitored.
Food intake was monitored on an hourly basis as described above. In this experiment, food was removed 1.5 h before the start of the test.

The subject of test [6] is GHRH. The test can be described thus: GH response to GHRH in rats. The format is in vivo, rat. To be noted: GHRH 5 μg i.v.
The target in test [7] is T4, GHS-R 1a. In words: Spontaneous pulsatile GH secretion in free-moving adult male rats. The format is in vivo. The protocol:
Adult male Sprague Dawley rats (225-260 g) were purchased from Charles River Canada (St. Constant, Canada) and individually housed on a 12-h light, 12-h dark cycle (lights on, 0600-1800 h) in a temperature (22±1° C.)—and humidity-controlled room. Purina rat chow (Ralston Purina Co., St. Louis, Mo.) and tap water were available ad libitum.
Chronic intracerebroventricular (i.c.v.) and intracardiac venous cannulas were implanted under sodium pentobarbital (50 mg/kg, i.p.) anesthesia using previously described techniques in (2) and (11). The placement of the icy cannulae was verified by both a positive drinking response to i.c.v. carbachol (100 ng/10 μl) injection on the day after surgery and methylene blue dye at the time of death. After surgery, the rats were placed directly in isolation test chambers with food and H2O freely available until body weight returned to preoperative levels (usually within 5-7 d). During this time the rats were handled daily to minimize any stress associated with handling on the day of the experiment. On the test day, food was removed 1.5 h before the start of sampling and was returned at the end.
These time points were chosen because they correspond closely to the time of onset of the spontaneous GH secretory episodes, as previously documented in our laboratory (2, 4). Blood samples were withdrawn from 1000-1600 h, as described above; however, no blood sample was withdrawn 5 min after the injections.

Test [8] addresses T1, Ghrelin/GHRP/GHS Receptor. In words: In vivo GH release in rat after i.v. peptide (serum GH by RIA). The protocol:
For the in vivo assay of GH Release in rat, immature female Sprague Dawley rats were obtained from Charles River from Wilmington, Mass. After arrival they were housed at 25° C. with a 14:10 h light:dark cycle. Water and Purina rat chow were available at libitum. Pups were weaned at 21 days of age.
Immature twenty six day old female Sprague Dawley rats, 3-6 rats per treatment dose, were pretreated with pentobarbital 20 minutes before iv injection of vehicle/peptide or peptide plus stimulator. Injection was made as a 0.1 ml solution. For the non-pentobarbital treated rat assay, peptides were administered iv into the tail vein of conscious rats. All animals were sacrificed by guillotine after iv peptide or vehicle. Trunk blood was collected at +10-15 minutes […], allowed to clot, centrifuged and serum stored until assayed for GH levels by RIA. The GH RIA reagents were distributed by the NIH. Control data was collected from rats treated with only the corresponding vehicle in the absence of peptide or stimulator. Control stimulated data was collected from rats treated with stimulator alone in the absence of any peptide.

The target in test [9] is T4, GHS-R 1a. In words: Ghrelin-induced GH release in free-moving adult male rats. Conditions: for GH response to i.c.v. ghrelin: 5 μg antagonist i.c.v. 15 min before 500 ng ghrelin i.c.v. The format is in vivo. As for the experimental part:
Adult male Sprague Dawley rats (225-260 g) were purchased from Charles River Canada (St. Constant, Canada) and individually housed on a 12-h light, 12-h dark cycle (lights on, 0600-1800 h) in a temperature (22±1° C.)—and humidity-controlled room. Purina rat chow (Ralston Purina Co., St. Louis, Mo.) and tap water were available ad libitum. Chronic intracerebroventricular (i.c.v.) and intracardiac venous cannulas were implanted under sodium pentobarbital (50 mg/kg, i.p.) anesthesia using previously described techniques in (2) and (11). […] During this time the rats were handled daily to minimize any stress associated with handling on the day of the experiment. On the test day, food was removed 1.5 h before the start of sampling and was returned at the end. […] Both the human ghrelin peptide (provided by Dr. K. Chang, Phoenix Pharmaceuticals, Inc., Belmont, Calif.) and the GHS-A were diluted in normal saline just before use. Blood samples (0.35 ml) were withdrawn every 15 min over a 6-h sampling period (1000-1600 h) from all animals. […] All blood samples were immediately centrifuged, and plasma was separated and stored at −20° C. for subsequent assay of GH. To avoid hemodynamic disturbance, the red blood cells were resuspended in normal saline and returned to the animal after removal of the next blood sample. […] Blood samples were withdrawn from 1000-1600 h, as described above.

Setting [10] is: peptide antagonist 30 μg/ml + stimulator His-DTrp-Ala-Trp-DPhe-Lys-NH2 10 ng/ml.
Setting [11] is: 5 μg i.c.v. before ghrelin 500 ng i.c.v.
The mark [12] stands for this setting: 5 μg i.c.v., overnight-fasted animals.

T1 sequence (O08725 whole entry): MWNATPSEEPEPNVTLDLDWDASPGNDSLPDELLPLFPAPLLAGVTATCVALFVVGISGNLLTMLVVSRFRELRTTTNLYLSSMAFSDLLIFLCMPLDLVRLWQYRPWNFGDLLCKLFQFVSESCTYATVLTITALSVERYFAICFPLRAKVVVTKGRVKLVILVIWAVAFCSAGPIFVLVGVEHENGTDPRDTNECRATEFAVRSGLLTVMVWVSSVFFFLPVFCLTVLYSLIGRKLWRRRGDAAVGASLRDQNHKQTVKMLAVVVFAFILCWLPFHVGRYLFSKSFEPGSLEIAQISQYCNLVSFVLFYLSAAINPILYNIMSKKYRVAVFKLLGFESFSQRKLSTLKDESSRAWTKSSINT
T4 sequence (O08725 whole entry): as above
T2 sequence (Q92847 whole entry): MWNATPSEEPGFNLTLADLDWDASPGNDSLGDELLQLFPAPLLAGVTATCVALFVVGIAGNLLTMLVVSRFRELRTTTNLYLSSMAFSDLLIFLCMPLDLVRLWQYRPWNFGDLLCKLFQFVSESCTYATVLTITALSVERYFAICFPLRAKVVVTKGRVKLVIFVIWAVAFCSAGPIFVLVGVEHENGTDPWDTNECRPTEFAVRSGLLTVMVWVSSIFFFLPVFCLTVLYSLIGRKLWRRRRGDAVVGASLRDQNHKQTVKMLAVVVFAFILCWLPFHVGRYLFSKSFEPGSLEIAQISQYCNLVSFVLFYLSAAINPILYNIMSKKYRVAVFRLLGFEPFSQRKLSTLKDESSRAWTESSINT
T3 sequence (O08725 whole entry): as the sequence (O08725 whole entry) above

Consider “DesaminoTyr-DTrp-Ser-Trp-DPhe-NH2 [10-DesaminoTyr-DTrp-Ser-Trp-DPhe-NH2]”, for which the “Stimulated GH release” value in [1] (setting [10]) stood at 3258 ± 682 ng/mL.
Turning to `CSCC[C@H](NC(=O)CN)C(=O)N[C@@H](C)C(=O)NCC(=O)N[C@@H](CO)C(=O)N[C@@H](Cc1c[nH]c2ccccc12)C(=O)N[C@@H](Cc1ccccc1)C(=O)N[C@@H](CC(C)C)C(=O)N[C@@H](CO)C(=O)N1CCC[C@H]1C(=O)N[C@@H](CCC(=O)O)C(=O)N[C@@H](Cc1c[nH]cn1)C(=O)N[C@@H](CCC(N)=O)C(=O)N[C@@H](CCCNC(=N)N)C(=O)N[C@H](C(=O)N[C@@H](CCC(N)=O)C(=O)N[C@@H](CCC(N)=O)C(=O)N[C@@H](CCCNC(=N)N)C(=O)N[C@@H](CCCCN)C(=O)N[C@@H](CCC(=O)O)C(=O)N[C@@H](CO)C(=O)N[C@@H](CCCCN)C(=O)N[C@@H](CCCCN)C(=O)N1CCC[C@H]1C(=O)N1CCC[C@H]1C(=O)N[C@@H](C)C(=O)N[C@@H](CCCCN)C(=O)N[C@@H](CC(C)C)C(=O)N[C@@H](CCC(N)=O)C(=O)N1CCC[C@H]1C(=O)N[C@@H](CCCNC(=N)N)C(=O)O)C(C)C` [#7], in [2], the IC50 (in general, the concentration needed to halve the response being measured) was determined as 284 nM; the inhibition constant Ki (commonly a dissociation constant, usually derived from enzyme kinetics or from competition with a known ligand) stood at 159 nM; the “% INH, Ghrelin/GHS Antagonist Receptor Activity” value is reported as 86%.
Regarding Y[dW]AW[dF]-NH2 [reference compound], in test [1] (Table 12, *S = Tyr-DTrp-Ala-Trp-DPhe-NH2 0.3 μg/ml), the “Stimulated Control GH release (stimulator *S alone)” value came to 2218 ± 194 ng/mL.
As to `CSCC[C@H](NC(=O)CN)C(=O)N[C@@H](C)C(=O)N[C@H](C)C(=O)N[C@H](Cc1ccc2ccccc2c1)C(=O)N[C@@H](C)C(=O)N[C@@H](Cc1c[nH]c2ccccc12)C(=O)N[C@H](Cc1ccccc1)C(=O)N[C@@H](CCCCN)C(N)=O` [#5, GlyMetAlaDAlaDβNalAlaTrpDPheLysNH2] (HELM PEPTIDE1{G.M.A.[dA].[O=C([C@@H](Cc1ccc2ccccc2c1)N[*:1])[*:2]].A.W.[dF].K.[am]}$$$$V2.0; N-terminus assumed), in [2], the half-inhibitory concentration (IC50) was determined as 296 nM; the Ki is 166 nM; the “% INH, Ghrelin/GHS Antagonist Receptor Activity” value was 94%.
In the same order, the values of `CSCC[C@H](NC(=O)CN)C(=O)N[C@@H](C)C(=O)N[C@H](C)C(=O)N[C@H](Cc1ccc2ccccc2c1)C(=O)N[C@H](CCCCN)C(=O)N[C@@H](Cc1c[nH]c2ccccc12)C(=O)N[C@H](Cc1ccccc1)C(=O)N[C@@H](CCCCN)C(N)=O` [#6a, GlyMetAlaDAlaDβNalDLysTrpDPheLysNH2] (HELM PEPTIDE1{G.M.A.[dA].[O=C([C@@H](Cc1ccc2ccccc2c1)N[*:1])[*:2]].[dK].W.[dF].K.[am]}$$$$V2.0; N-terminus assumed) are 707 nM, 395 nM and 89%.
For “Gly-Met-Ala-Gly-Ser-(Dap-Palmityl)-Phe-Leu-Ser-Pro-Glu-His-NH2 (GMAGS[Dap(palmityl)]FLSPEH-NH2) [#6]”, the “(cumulative) food intake” value in test [3] was “did not inhibit GH secretion or decreased food intake”. In addition, the “spontaneous growth hormone secretion / plasma GH levels” value in [4] is on record as “did not inhibit”.
Regarding “H[dW][dK]W[dF]K-NH2 [6-His-DTrp-DLys-Trp-DPhe-Lys-NH2]”, the “Stimulated GH release” value in [1] (peptide antagonist 1 μg/ml + stimulator His-DTrp-Ala-Trp-DPhe-Lys-NH2 10 ng/ml) stood at 324 ± 181 ng/mL.
In the case of “H[d2Nal][dK]W[dF]K-NH2 [4-His-DβNal-DLys-Trp-DPhe-Lys-NH2]”, in [5] (setting [11]), the “cumulative food intake after ghrelin, up to 5 h” value is “significantly suppressed” and the “ghrelin-stimulated food intake, first hour after injections” value is “significantly inhibited”. Moreover, in [5] (setting [12]), the “cumulative spontaneous food intake beyond the first hour” value is reported as “not inhibited” and the “spontaneous food intake, first hour after injection” value is listed as “significantly inhibited”. The “GH response to GHRH” value in test [6] is “did not significantly reduce”. In [7] (5 μg i.c.v.), the “1-h GH AUC's of spontaneous GH secretory episodes (1100 h, 1400 h) and overall 6-h GH AUC” value is recorded as “significantly reduced”; the “GH peak frequency, interpeak interval and nadir (cluster analysis)” value was “no significant effect”; the “GH peak height (cluster analysis)” value is “significant suppression”. Moreover, the “amplitude of the spontaneous GH pulses” value in test [7] (5 μg i.c.v. 15 min before expected GH bursts) is “severely attenuated”. Besides, the “Stimulated GH release” value in test [8] (peptide antagonist 30 μg i.v. + stimulator 0.3 μg) was found to be 733 ± 85 ng/mL. Moreover, the “Stimulated GH release” value in [8] (peptide antagonist 100 μg i.v. + stimulator 1 μg) stood at 818 ± 269 ng/mL. In addition, the “GH response to i.c.v. ghrelin” value in test [9] was “virtually obliterated”. Moreover, in test [9] (listed as GHS-A), the “GH response to i.c.v. ghrelin” value was “abolished”. In [9] (5 μg i.c.v. pretreatment, ghrelin 500 ng i.c.v.), the “reduction of GH AUC following i.c.v. ghrelin vs saline-pretreated controls” value is given as 15 fold. In [9] (250 μg antagonist i.v. 15 min before 5 μg ghrelin i.v., listed as GHS-A), the “GH response to i.v. ghrelin” value is on record as “strongly blocked”. In addition, the “reduction of GH AUC following i.v. ghrelin vs saline-pretreated controls” value in [9] (250 μg i.v. pretreatment, ghrelin 5 μg i.v.) was 5 fold.
“Y[dW][dW]FF-NH2 [12-Tyr-DTrp-DTrp-Phe-Phe-NH2]”: the “Stimulated GH release” value in test [1] (setting [10]) was -167 ± 157 ng/mL.
